The compounds below were run against T1, human CCR6 (Homo sapiens, UniProt P51684) (assay: Human CCR6-CRE reporter assay). Settings: relative -Log IC50; 293FT cells transfected with human CCR6 and CRE-luciferase reporter; 6 μM Forskolin, 6 nM CCL20; 5 h.
T1 sequence (P51684 1-374): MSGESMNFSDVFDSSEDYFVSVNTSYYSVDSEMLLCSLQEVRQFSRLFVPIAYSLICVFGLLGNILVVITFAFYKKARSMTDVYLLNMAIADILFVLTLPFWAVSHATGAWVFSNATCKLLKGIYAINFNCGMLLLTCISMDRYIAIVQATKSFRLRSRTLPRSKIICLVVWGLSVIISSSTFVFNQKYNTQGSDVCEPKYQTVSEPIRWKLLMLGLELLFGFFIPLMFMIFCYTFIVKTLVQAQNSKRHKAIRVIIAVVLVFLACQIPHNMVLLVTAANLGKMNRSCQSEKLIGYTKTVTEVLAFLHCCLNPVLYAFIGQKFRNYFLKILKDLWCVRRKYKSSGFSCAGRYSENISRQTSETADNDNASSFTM
Format: cell-based
Set-up: The second construct contained the open reading frame of human CCR6 in the pUNO1 backbone; host or cells: 293FT cells
Procedure: Human CCR6-CRE Reporter Assay
293FT cells were transfected with 2 constructs using TransIT-293 (Mirus). The first construct (pGL4.29, Promega) expressed the luciferase reporter gene luc2P in response to the binding of cAMP-induced CREB to the CREelement in its promoter. The second construct contained the open reading frame of human CCR6 in the pUNO1 backbone under the control of an enhanced CMV promoter (InVivoGen). 48 h after transfection, cells were harvested and diluted to 750,000 cells/ml in culture medium (DMEM, 10% FBS, 1× pen/strep (Gibco 15140)). Compounds were 2.5-fold serially diluted in DMSO. Further dilutions were made in assay medium (DMEM, 10% FBS, 1× pen/strep, 6 μM Forskolin, 6 nM CCL20). 4 μl of the compound solution was added to a white MW384 plate, followed by 20 μl of the cell suspension. Final DMSO concentration in the assay was 0.1%. The MW384 plate was placed in an incubator at 37° C., 5% CO2 for 5 h. Luciferase activity was determined by addition of 24 μl of a 2.5× diluted BriteLite luciferase solution (Perkin Elmer), followed by luminescence measurement using a VICTOR Plate reader (Perkin Elmer). […] The relative −Log IC50 was determined with GraphPad Prism 9 using a four-parameter dose-response model.

Row | SMILES | IC50
1 | N=S(=O)(c1ccc(-c2ccn3ccnc3c2)cc1)[C@H]1CC[C@H](Nc2ccc(S(F)(F)(F)(F)F)cc2)CC1 (stereo partly drawn) [Example 93, (4-{imidazo[1,2-a]pyridin-7-yl}phenyl)[trans-4-{[4-(pentafluoro-λ^6-sulfanyl)phenyl]Amino}cyclohexyl](imino)-λ^6-sulfanone] | 398 nM
2 | N=S(=O)(c1ccc(-c2ccn3ncnc3c2)cc1)[C@H]1CC[C@H](Nc2ccc(S(F)(F)(F)(F)F)cc2)CC1 (stereo partly drawn) [Example 94, [trans-4-{[4-(pentafluoro-λ^6-sulfanyl)phenyl]Amino}cyclohexyl](4-{[1,2,4]triazolo[1,5-a]pyridin-7-yl}phenyl)(imino)-λ^6-sulfanone] | 501 nM
3 | CN(C)C(=O)c1cccc(-c2ccc(S(=N)(=O)[C@H]3CC[C@H](Nc4ccc(S(F)(F)(F)(F)F)cc4)CC3)cc2)c1 (stereo partly drawn) [Example 97, N,N-dimethyl-4′-{[trans-4-{[4-(pentafluoro-λ^6-sulfanyl)phenyl]Amino}cyclohexyl]sulfonimidoyl}-[1,1′-biphenyl]-3-carboxamide] | 1000 nM
4 | CN(C)C(=O)c1ccc(-c2ccc(S(=N)(=O)[C@H]3CC[C@H](Nc4ccc(S(F)(F)(F)(F)F)cc4)CC3)cc2)cn1 (stereo partly drawn) [Example 100, N,N-dimethyl-5-(4-{[trans-4-{[4-(pentafluoro-λ^6-sulfanyl)phenyl]Amino}cyclohexyl]sulfonimidoyl}phenyl)pyridine-2-carboxamide] | 794 nM
5 | Cc1cn2cc(-c3ccc(S(=N)(=O)[C@H]4CC[C@H](Nc5ccc(S(F)(F)(F)(F)F)cc5)CC4)cc3)ncc2n1 (stereo partly drawn) [Example 103, (4-{2-methylimidazo[1,2-a]pyrazin-6-yl}phenyl)[trans-4-{[4-(pentafluoro-λ^6-sulfanyl)phenyl]Amino}cyclohexyl](imino)-λ^6-sulfanone] | 1260 nM
6 | Cc1nnc2cc(-c3ccc(S(=N)(=O)[C@H]4CC[C@H](Nc5ccc(S(F)(F)(F)(F)F)cc5)CC4)cc3)ccn12 (stereo partly drawn) [Example 104, (4-{3-methyl-[1,2,4]triazolo[4,3-a]pyridin-7-yl}phenyl)[trans-4-{[4-(pentafluoro-λ^6-sulfanyl)phenyl]Amino}cyclohexyl](imino)-λ^6-sulfanone] | 398 nM
7 | CN(C)C(=O)c1ccc(-c2ccc(S(=N)(=O)[C@H]3CC[C@H](Nc4ccc(S(F)(F)(F)(F)F)cc4)CC3)cc2)nc1 (stereo partly drawn) [Example 106, N,N-dimethyl-6-(4-{[trans-4-{[4-(pentafluoro-λ^6-sulfanyl)phenyl]Amino}cyclohexyl]sulfonimidoyl}phenyl)pyridine-3-carboxamide] | 1580 nM
8 | CNC(=O)c1ccc(-c2ccc(S(=N)(=O)[C@H]3CC[C@H](Nc4ccc(S(F)(F)(F)(F)F)cc4)CC3)cc2)nc1 (stereo partly drawn) [Example 107, N-methyl-6-(4-{[trans-4-{[4-(pentafluoro-λ^6-sulfanyl)phenyl]Amino}cyclohexyl]sulfonimidoyl}phenyl)pyridine-3-carboxamide] | 1580 nM
9 | N=S(=O)(c1ccc(-c2ccc(C(N)=O)nc2)cc1)[C@H]1CC[C@H](Nc2ccc(S(F)(F)(F)(F)F)cc2)CC1 (stereo partly drawn) [Example 108, 5-(4-{[trans-4-{[4-(pentafluoro-λ^6-sulfanyl)phenyl]Amino}cyclohexyl]sulfonimidoyl}phenyl)pyridine-2-carboxamide] | 501 nM
10 | CN(C)C(=O)c1cc(-c2ccc(S(=N)(=O)[C@H]3CC[C@H](Nc4ccc(S(F)(F)(F)(F)F)cc4)CC3)cc2)ccn1 (stereo partly drawn) [Example 109, N,N-dimethyl-4-(4-{[trans-4-{[4-(pentafluoro-λ^6-sulfanyl)phenyl]Amino}cyclohexyl]sulfonimidoyl}phenyl)pyridine-2-carboxamide] | 2000 nM
11 | CNC(=O)c1cc(-c2ccc(S(=N)(=O)[C@H]3CC[C@H](Nc4ccc(S(F)(F)(F)(F)F)cc4)CC3)cc2)ccn1 (stereo partly drawn) [Example 110, N-methyl-4-(4-{[trans-4-{[4-(pentafluoro-λ^6-sulfanyl)phenyl]Amino}cyclohexyl]sulfonimidoyl}phenyl)pyridine-2-carboxamide] | 316 nM
12 | N=S(=O)(c1ccc(-c2ccc(C(N)=O)cn2)cc1)[C@H]1CC[C@H](Nc2ccc(S(F)(F)(F)(F)F)cc2)CC1 (stereo partly drawn) [Example 111, 6-(4-{[trans-4-{[4-(pentafluoro-λ^6-sulfanyl)phenyl]Amino}cyclohexyl]sulfonimidoyl}phenyl)pyridine-3-carboxamide] | 1000 nM
13 | N=S(=O)(c1ccc(-c2ccc3c(c2)CNC3=O)cc1)[C@H]1CC[C@H](Nc2ccc(S(F)(F)(F)(F)F)cc2)CC1 (stereo partly drawn) [Example 112, 5-(4-{[trans-4-{[4-(pentafluoro-λ^6-sulfanyl)phenyl]Amino}cyclohexyl]sulfonimidoyl}phenyl)-2,3-dihydro-1H-isoindol-1-one] | 398 nM
14 | N=S(=O)(c1ccc(-c2ccc3c(c2)CCNC3=O)cc1)[C@H]1CC[C@H](Nc2ccc(S(F)(F)(F)(F)F)cc2)CC1 (stereo partly drawn) [Example 113, 6-(4-{[trans-4-{[4-(pentafluoro-λ^6-sulfanyl)phenyl]Amino}cyclohexyl]sulfonimidoyl}phenyl)-1,2,3,4-tetrahydroisoquinolin-1-one] | 316 nM
15 | N=S(=O)(c1ccc(-c2ccc3c(c2)C(=O)NCC3)cc1)[C@H]1CC[C@H](Nc2ccc(S(F)(F)(F)(F)F)cc2)CC1 (stereo partly drawn) [Example 114, 7-(4-{[trans-4-{[4-(pentafluoro-λ^6-sulfanyl)phenyl]Amino}cyclohexyl]sulfonimidoyl}phenyl)-1,2,3,4-tetrahydroisoquinolin-1-one] | 398 nM
16 | N=S(=O)(c1ccc(-c2ccc3c(c2)C(=O)NC3)cc1)[C@H]1CC[C@H](Nc2ccc(S(F)(F)(F)(F)F)cc2)CC1 (stereo partly drawn) [Example 115, 6-(4-{[trans-4-{[4-(pentafluoro-λ^6-sulfanyl)phenyl]Amino}cyclohexyl]sulfonimidoyl}phenyl)-2,3-dihydro-1H-isoindol-1-one] | 398 nM
17 | N=S(=O)(c1ccc(-c2ccc3c(c2)CC(=O)N3)cc1)[C@H]1CC[C@H](Nc2ccc(S(F)(F)(F)(F)F)cc2)CC1 (stereo partly drawn) [Example 116, 5-(4-{[trans-4-{[4-(pentafluoro-λ^6-sulfanyl)phenyl]Amino}cyclohexyl]sulfonimidoyl}phenyl)-2,3-dihydro-1H-indol-2-one] | 200 nM
18 | N=S(=O)(c1ccc(-c2ccc3c(c2)NC(=O)C3)cc1)[C@H]1CC[C@H](Nc2ccc(S(F)(F)(F)(F)F)cc2)CC1 (stereo partly drawn) [Example 117, 6-(4-{[trans-4-{[4-(pentafluoro-λ^6-sulfanyl)phenyl]Amino}cyclohexyl]sulfonimidoyl}phenyl)-2,3-dihydro-1H-indol-2-one] | 251 nM
19 | N=S(=O)(c1ccc(-c2ccc3n[nH]c(=O)n3c2)cc1)[C@H]1CC[C@H](Nc2ccc(S(F)(F)(F)(F)F)cc2)CC1 (stereo partly drawn) [Example 119, 6-(4-{[trans-4-{[4-(pentafluoro-λ^6-sulfanyl)phenyl]Amino}cyclohexyl]sulfonimidoyl}phenyl)-2H,3H-[1,2,4]triazolo[4,3-a]pyridin-3-one] | 316 nM
20 | N#Cc1c[nH]c2ccc(-c3ccc(S(=N)(=O)N4CCC(Nc5ccc(S(F)(F)(F)(F)F)cc5)CC4)cc3)cc12 (centres unmarked) [Example 120, 5-{4-[(4-{[4-(pentafluoro-λ^6-sulfanyl)phenyl]Amino}piperidin-1-yl)sulfonimidoyl]phenyl}-1H-indole-3-carbonitrile] | 63.1 nM
21 | N#Cc1ccc(-c2ccc(S(=N)(=O)N3CCC(Nc4ccc(S(F)(F)(F)(F)F)cc4)CC3)cc2)cc1 (centres unmarked) [Example 122, 4′-[(4-{[4-(pentafluoro-λ^6-sulfanyl)phenyl]Amino}piperidin-1-yl)sulfonimidoyl]-[1,1′-biphenyl]-4-carbonitrile] | 398 nM
22 | CC(C)NC(=O)c1cccc(-c2ccc(S(=O)(=O)[C@H]3CC[C@H](Nc4ccc(S(F)(F)(F)(F)F)cc4)CC3)cc2)c1 [Example 141, N-(propan-2-yl)-4′-{[trans-4-{[4-(pentafluoro-λ^6-sulfanyl)phenyl]amino}cyclohexyl]sulfonyl}-[1,1′-biphenyl]-3-carboxamide] | 79.4 nM
23 | CN(C)c1cnc2ccc(-c3ccc(S(=O)(=O)[C@H]4CC[C@H](Nc5ccc(S(F)(F)(F)(F)F)cc5)CC4)cc3)cn12 [Example 143, N,N-dimethyl-6-(4-{[trans-4-{[4-(pentafluoro-λ^6-sulfanyl)phenyl]amino}cyclohexyl]sulfonyl}phenyl)imidazo[1,2-a]pyridin-3-amine] | 100 nM
